# Counter-ions that a name gives are not always drawn.
# Biological target: MASP-2 CCP2-SP (Homo sapiens (Human), UniProt O00187)
# Assay: MASP-2 co-crystallization, X-ray crystallography and structure analysis (H-bonds, van der Waals contacts);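 as to Ligand-pharmacophore element distance, pharmacophore element C2: distance from averaged pharmacophore element to bound ligand; missing value means element absent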;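 as to Ligand-pharmacophore element distance, pharmacophore element C3: distance from averaged pharmacophore element to bound ligand; missing value means element absent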;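 as to Ligand-pharmacophore element distance, pharmacophore element C4: distance from averaged pharmacophore element to bound ligand; missing value means element absent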;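 as to Ligand-pharmacophore element distance, pharmacophore element C5: distance from averaged pharmacophore element to bound ligand; missing value means element absent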
# Design: van der Waals contact distance, MASP-2 HIS 483 atom CD2 / van der Waals contact distance, MASP-2 HIS 483 atom NE2 / van der Waals contact distance, SER 654 C to compound atom / van der Waals contact distance, SER 654 O to compound atom / van der Waals contact distance, TRP 655 C to compound atom / van der Waals contact distance, MASP-2 GLY 528 atom CA / van der Waals contact distance TRP 655 atom CZ3 / van der Waals contact distance TRP 655 atom N / van der Waals contact distance TRP 655 atom CE3 / van der Waals contact distance GLY 656 atom C / van der Waals contact distance GLY 656 atom CA / van der Waals contact distance GLY 656 atom O / van der Waals contact distance, MASP-2 TYR 607 atom CD1 / van der Waals contact distance, MASP-2 PRO 606 atom O / d(C3,CA1) / d(CA1,N1)2 / d(H4,O1) / d(H4,O2) / d(O1,O2) / d(CA1,O2) / d(CA6,O1) / d(CA6,O2) / d(CA1,C5) / d(O2,H3) / d(N2,C2) / d(CA5,N2) / d(N2,C4) / d(N2,C6) / d(N2,CA3) / d(N2,O3) / d(O4,H2): unit not given beside the values
# Details: for Ligand-pharmacophore element distance, pharmacophore element C2 / Ligand-pharmacophore element distance, pharmacophore element C3 / Ligand-pharmacophore element distance, pharmacophore element C4 / Ligand-pharmacophore element distance, pharmacophore element C5 / Ligand-pharmacophore element distance, pharmacophore element C6 / Ligand-pharmacophore element distance, pharmacophore element C7 / Ligand-pharmacophore element distance, pharmacophore element CA1 / Ligand-pharmacophore element distance, pharmacophore element CA2 / Ligand-pharmacophore element distance, pharmacophore element CA3 / Ligand-pharmacophore element distance, pharmacophore element CA4 / Ligand-pharmacophore element distance, pharmacophore element CA5 / Ligand-pharmacophore element distance, pharmacophore element CA6: Table A4-1; for Pharmacophore torsion angle a(O1, O2, N2, CA2): Table A7-2
# Method in brief: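 Inhibitor complexes were obtained by soaking crystals of E. coli-derived human MASP-2 CCP2-SP. Synchrotron diffraction at 1.0 wavelength, molecular replacement and partial refinement gave the models; one pose per ligand was chosen for contact analysis.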
# [1] = Table A5-1 pharmacophore: distance between elements, S2/S1 region
# [2] = Table A5-2 pharmacophore distance, S3/S4 region
# [3] = Table A7-1, between pharmacophore elements of the bound compound
# [4] = between pharmacophore elements of the bound compound
# [5] = Table A8-6, nearest protein atom in cell to the left
# MASP-2 CCP2-SP, sequence (O00187 445-686): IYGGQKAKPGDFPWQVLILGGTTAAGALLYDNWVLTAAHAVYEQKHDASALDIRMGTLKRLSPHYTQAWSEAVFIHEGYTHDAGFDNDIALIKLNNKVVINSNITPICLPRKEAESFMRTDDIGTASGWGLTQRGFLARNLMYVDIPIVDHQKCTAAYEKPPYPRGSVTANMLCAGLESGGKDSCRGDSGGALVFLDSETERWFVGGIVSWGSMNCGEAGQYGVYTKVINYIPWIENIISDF
# MASP-2 CCP2-SP, sequence (O00187 364-432 partner): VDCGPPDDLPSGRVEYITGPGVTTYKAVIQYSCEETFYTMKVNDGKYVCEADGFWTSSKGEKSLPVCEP
smiles,measurement,setting,value
"C[C@H](NC(=O)[C@H]1C[C@H](Cc2ccccc2)CN1)C(=O)NCc1cc(Cl)ccc1-n1cnnn1 [compound 1371, (2R,4S)-4-Benzyl-N—((S)-1-((5-chloro-2-(1H-tetrazol-1-yl)benzyl)amino)-1-oxopropan-2-yl)pyrrolidine-2-carboxamide Hydrochloride]",H-bond distance to MASP-2 GLY 656 atom N,"Table A1 (H-Bonds), GLY 656 N",3.18
same,H-bond distance to MASP-2 GLY 656 atom O,"Table A1 (H-Bonds), GLY 656 O",2.75
same,H-bond distance to MASP-2 SER 654 atom O,"Table A1 (H-Bonds), SER 654 O",2.86
same,H-bond distance to MASP-2 SER 657 atom O,"Table A1 (H-Bonds), SER 657 O",2.96
same,"van der Waals contact distance, MASP-2 HIS 483 atom CD2",Table A2-1,3.55
same,"van der Waals contact distance, MASP-2 HIS 483 atom NE2",Table A2-1,3.61
same,"van der Waals contact distance, MASP-2 GLY 528 atom CA",Table A2-2,3.8
same,"van der Waals contact distance, MASP-2 PHE 529 atom CD2",Table A2-3,3.86
same,"van der Waals contact distance, MASP-2 PHE 529 atom CE2",Table A2-3,3.89
same,"van der Waals contact distance, MASP-2 amino acid atom to compound atom","Table A2-9 second part, ARG 630, AA atoms N, NE, NH1",3.44
same,"van der Waals contact distance, SER 654 C to compound atom",Table A2-11,3.9
same,van der Waals contact distance GLY 656 atom C,"Table A2-13, MASP-2 GLY 656 C",3.84
same,"van der Waals contact distance, MASP-2 amino acid atom to compound atom",Table A2 section before Table A2-8,3.76
same,"Ligand-pharmacophore element distance, pharmacophore element C2",,0
same,"Ligand-pharmacophore element distance, pharmacophore element C3",,0
same,"Ligand-pharmacophore element distance, pharmacophore element C4",,0
same,"Ligand-pharmacophore element distance, pharmacophore element C5",,0.48
same,"Ligand-pharmacophore element distance, pharmacophore element C6",,0
same,"Ligand-pharmacophore element distance, pharmacophore element C7",,0
same,"Ligand-pharmacophore element distance, pharmacophore element CA1",,0.58
same,"Ligand-pharmacophore element distance, pharmacophore element CA2",,0.46
same,"Ligand-pharmacophore element distance, pharmacophore element CA3",,0
same,"Ligand-pharmacophore element distance, pharmacophore element CA4",,0
same,"Ligand-pharmacophore element distance, pharmacophore element CA5",,0
same,"Ligand-pharmacophore element distance, pharmacophore element CA6",,0
same,"d(CA1,O1)",[1],3.46
same,"d(CA1,O2)",[1],3.72
same,"d(H4,O1)",[1],3.13
same,"d(H4,O2)",[1],3.66
same,"d(O1,O2)",[1],3.25
same,"d(N2,CA2)",[2],5.90
same,"d(O2,H3)",[2],1.96
same,"d(O2,N2)",[2],2.79
same,"a(CA1, O1, O2)",Table A6-1 pharmacophore angle,121.03
same,"a(O1, O2, H4)",Table A6-1 pharmacophore angle,123.31
same,"a(O1, O2, H3)",Table A6-2 pharmacophore angle,136.64
same,"a(O1, O2, N2)",Table A6-2 pharmacophore angle,146.93
same,"a(O2, N2, CA2)",Table A6-2 pharmacophore angle,155.86
same,"Pharmacophore torsion angle a(H4, O1, O2, H3)",[3],−165.12
same,"Pharmacophore torsion angle a(H4, O1, O2, N2)",[3],−174.11
same,"Pharmacophore torsion angle a(O1, H4, O2, CA1)",[3],−68.15
same,"Pharmacophore torsion angle a(O1, O2, N2, CA2)",[4],136.54
C[C@H](NC(=O)[C@H]1C[C@@H](c2ccccc2)CCN1)C(=O)NCc1cc(Cl)ccc1O.Cl [1078_1],"Ligand-pharmacophore element distance, pharmacophore element C2",,0.69
same,"Ligand-pharmacophore element distance, pharmacophore element C3",,0
same,"Ligand-pharmacophore element distance, pharmacophore element C4",,0
same,"Ligand-pharmacophore element distance, pharmacophore element C5",,0.4
same,"Ligand-pharmacophore element distance, pharmacophore element C6",,0
same,"Ligand-pharmacophore element distance, pharmacophore element C7",,0
same,"Ligand-pharmacophore element distance, pharmacophore element CA1",,1.58
same,"Ligand-pharmacophore element distance, pharmacophore element CA2",,0.48
same,"Ligand-pharmacophore element distance, pharmacophore element CA3",,0
same,"Ligand-pharmacophore element distance, pharmacophore element CA4",,0
same,"Ligand-pharmacophore element distance, pharmacophore element CA5",,0
same,"Ligand-pharmacophore element distance, pharmacophore element CA6",,0
same,"d(CA1,C5)",[1],3.12
same,"d(CA1,O1)",[1],4.56
same,"d(CA1,O2)",[1],4.72
same,"d(CA1,O4)",[1],2.75
same,"d(H4,O1)",[1],2.29
same,"d(H4,O2)",[1],2.61
same,"d(O1,O2)",[1],3.05
same,"d(O4,H2)",[1],0.97
same,"d(N2,C2)",[2],1.48
same,"d(N2,CA2)",[2],5.74
same,"d(O2,H3)",[2],2.93
same,"d(O2,N2)",[2],2.77
same,"a(C5, CA1, O1)",Table A6-1 pharmacophore angle,160.22
same,"a(CA1, O1, O2)",Table A6-1 pharmacophore angle,111.94
same,"a(CA1, O4, H2)",Table A6-1 pharmacophore angle,126.79
same,"a(O1, CA1, O4)",Table A6-1 pharmacophore angle,68.03
same,"a(O1, O2, H4)",Table A6-1 pharmacophore angle,103.21
same,"a(O1, O2, H3)",Table A6-2 pharmacophore angle,141.96
same,"a(O1, O2, N2)",Table A6-2 pharmacophore angle,145.93
same,"a(O2, N2, C2)",Table A6-2 pharmacophore angle,121.70
same,"a(O2, N2, CA2)",Table A6-2 pharmacophore angle,154.68
same,"Pharmacophore torsion angle a(C5, CA1, O1, H4)",[3],25.08
same,"Pharmacophore torsion angle a(H4, O1, O2, H3)",[3],−119.94
same,"Pharmacophore torsion angle a(H4, O1, O2, N2)",[3],−112.97
same,"Pharmacophore torsion angle a(O1, H4, O2, CA1)",[3],−60.12
same,"Pharmacophore torsion angle a(O1, O2, N2, C2)",[3],138.25
same,"Pharmacophore torsion angle a(O1, O2, N2, CA2)",[4],140.46
same,Pharmacophore protein distance to MET_658 (first MET_658 column),"Table A8-6, 6th residue column, nearest protein atom in cell to the left",2.97
same,Pharmacophore protein distance to MET_658 (second MET_658 column),"Table A8-6, 9th residue column, nearest protein atom in cell to the left",3.50
same,Pharmacophore protein distance to GLY_528,[5],3.66
same,Pharmacophore protein distance to PHE_529,[5],3.30
same,Pharmacophore protein distance to PRO_608,[5],3.85
same,Pharmacophore protein distance to SER_611,[5],2.41
same,Pharmacophore protein distance to TRP_655,"Table A8-6, pharmacophore elements C6, CA3, O3, H1, nearest protein atom in cell to the left",3.68
Cc1nc(N)ccc1CNC(=O)[C@H](C)NC(=O)[C@H]1C[C@H](Cc2cccc(Cl)c2)CN1.Cl.Cl [1328_4],"Ligand-pharmacophore element distance, pharmacophore element C2",,0
same,"Ligand-pharmacophore element distance, pharmacophore element C3",,0.18
same,"Ligand-pharmacophore element distance, pharmacophore element C4",,1.86
same,"Ligand-pharmacophore element distance, pharmacophore element C5",,0
same,"Ligand-pharmacophore element distance, pharmacophore element C6",,0
same,"Ligand-pharmacophore element distance, pharmacophore element C7",,0
same,"Ligand-pharmacophore element distance, pharmacophore element CA1",,0.5
same,"Ligand-pharmacophore element distance, pharmacophore element CA2",,0.3
same,"Ligand-pharmacophore element distance, pharmacophore element CA3",,0
same,"Ligand-pharmacophore element distance, pharmacophore element CA4",,0
same,"Ligand-pharmacophore element distance, pharmacophore element CA5",,0
same,"Ligand-pharmacophore element distance, pharmacophore element CA6",,0
same,"d(C3,CA1)",[1],2.85
same,"d(CA1,N1)2",[1],1.37
same,"d(CA1,O1)",[1],5.05
same,"d(CA1,O2)",[1],3.83
same,"d(H4,O1)",[1],4.21
same,"d(H4,O2)",[1],2.53
same,"d(O1,O2)",[1],3.71
same,"d(N2,C4)",[2],7.92
same,"d(N2,C4)4",[2],7.92
same,"d(N2,CA2)",[2],6.17
same,"d(O2,H3)",[2],4.71
same,"d(O2,N2)",[2],2.79
same,"a(C3, CA1, O1)",Table A6-1 pharmacophore angle,151.05
same,"a(CA1, O1, O2)",Table A6-1 pharmacophore angle,96.00
same,"a(O1, O2, H4)",Table A6-1 pharmacophore angle,119.12
same,"a(N1, CA1, O1) b)","Table A6-1 pharmacophore angle, Methyl-amino-pyridine compounds",173.49
same,"a(O1, O2, H3)",Table A6-2 pharmacophore angle,150.66
same,"a(O1, O2, N2)",Table A6-2 pharmacophore angle,142.82
same,"a(O2, N2, C4)",Table A6-2 pharmacophore angle,160.57
same,"a(O2, N2, C4) 2",Table A6-2 pharmacophore angle,109.36
same,"a(O2, N2, CA2)",Table A6-2 pharmacophore angle,156.25
same,"Pharmacophore torsion angle a(C3, CA1, O1, H4)",[3],66.00
same,"Pharmacophore torsion angle a(H4, O1, O2, H3)",[3],44.95
same,"Pharmacophore torsion angle a(H4, O1, O2, N2)",[3],135.08
same,"Pharmacophore torsion angle a(N1, CA1, O1, H4)",[3],58.16
same,"Pharmacophore torsion angle a(O1, H4, O2, CA1)",[3],−91.48
same,"Pharmacophore torsion angle a(O1, O2, N2, CA2)",[4],128.70

# — patent publication US12195427B2, “MASP-2 inhibitors and methods of use” (priority 2018, dated 2025)
